Measured values taken from US8669249B2, “Poly (ADP-ribose) polymerase (PARP) inhibitors” (Takeda Pharmaceutical Company Limited, priority 2009, dated 2014).

Key:
[1] = target: T1, PARP (Homo sapiens, UniProt P09874); experiment: PARP ELISA (ELISA-based colorimetric PARP/Apoptosis Assay kit, Trevigen); type: biochemical; details: pIC50=-log10 IC50, IC50 in mol/L; inhibition of PARP catalytic activity
T1 construct: purchased Trevigen 4684-096-K HT (kit); 4684-096-01 (PARP enzyme)
Procedure, shortened: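 Quenched after 10 min catalysis by aspiration and four PBS/0.1% Triton X-100 washes. Poly(ADP-ribose) detected with mouse anti-PAR monoclonal antibody, goat anti-mouse IgG-HRP and HRP substrate; colorimetric signal proportional to PARP catalytic activity.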

[2] = target: T2, catalytic domain of Human PARP (Homo sapiens, UniProt P09874); experiment: Biacore surface plasmon resonance affinity assay; type: binding; details: pKD=-log10 KD, KD in mol/L; Biacore T100, 25° C.; read-out: pKD (converted)
T2 construct: The catalytic domain of Human PARP was cloned and prepared; made in house
Procedure, shortened: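 Binding at 25° C on Biacore T100: 1 min compound association then 5 min dissociation (50 μL/min) over immobilized PARP catalytic domain, buffer HBS-P plus 1% DMSO, 0.5 mM TCEP, 5 mM MgCl2, 2-fold dilution series. KD derived as koff/kon from fitted association and dissociation phases.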

[3] = system: Jurkat cell line; experiment: PARP cellular chemopotentiation assay (MTS, with/without TMZ); type: cell-based; details: Chemopotentiation factor: ratio of EC50 values of Jurkat cells co-treated without and with 100 μM TMZ; 96 hours
Procedure, shortened: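 Jurkat cells, 10,000/well, pre-cultured 24 h, then treated 96 h with serial compound dilutions (0.5% DMSO) with or without 100 μM TMZ. Viability by MTS conversion (OD490), normalized to DMSO controls; EC50 from curve fits, PF50 = EC50 without TMZ / EC50 with TMZ.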

T2 sequence (P09874 788-1014 limits assumed): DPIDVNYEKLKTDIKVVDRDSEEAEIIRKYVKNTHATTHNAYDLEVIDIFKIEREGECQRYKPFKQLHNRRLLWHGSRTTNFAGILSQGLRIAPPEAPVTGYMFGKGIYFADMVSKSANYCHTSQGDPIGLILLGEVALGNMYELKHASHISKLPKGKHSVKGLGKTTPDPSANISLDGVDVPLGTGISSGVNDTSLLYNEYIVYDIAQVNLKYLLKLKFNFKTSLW
T1 sequence (P09874 whole entry): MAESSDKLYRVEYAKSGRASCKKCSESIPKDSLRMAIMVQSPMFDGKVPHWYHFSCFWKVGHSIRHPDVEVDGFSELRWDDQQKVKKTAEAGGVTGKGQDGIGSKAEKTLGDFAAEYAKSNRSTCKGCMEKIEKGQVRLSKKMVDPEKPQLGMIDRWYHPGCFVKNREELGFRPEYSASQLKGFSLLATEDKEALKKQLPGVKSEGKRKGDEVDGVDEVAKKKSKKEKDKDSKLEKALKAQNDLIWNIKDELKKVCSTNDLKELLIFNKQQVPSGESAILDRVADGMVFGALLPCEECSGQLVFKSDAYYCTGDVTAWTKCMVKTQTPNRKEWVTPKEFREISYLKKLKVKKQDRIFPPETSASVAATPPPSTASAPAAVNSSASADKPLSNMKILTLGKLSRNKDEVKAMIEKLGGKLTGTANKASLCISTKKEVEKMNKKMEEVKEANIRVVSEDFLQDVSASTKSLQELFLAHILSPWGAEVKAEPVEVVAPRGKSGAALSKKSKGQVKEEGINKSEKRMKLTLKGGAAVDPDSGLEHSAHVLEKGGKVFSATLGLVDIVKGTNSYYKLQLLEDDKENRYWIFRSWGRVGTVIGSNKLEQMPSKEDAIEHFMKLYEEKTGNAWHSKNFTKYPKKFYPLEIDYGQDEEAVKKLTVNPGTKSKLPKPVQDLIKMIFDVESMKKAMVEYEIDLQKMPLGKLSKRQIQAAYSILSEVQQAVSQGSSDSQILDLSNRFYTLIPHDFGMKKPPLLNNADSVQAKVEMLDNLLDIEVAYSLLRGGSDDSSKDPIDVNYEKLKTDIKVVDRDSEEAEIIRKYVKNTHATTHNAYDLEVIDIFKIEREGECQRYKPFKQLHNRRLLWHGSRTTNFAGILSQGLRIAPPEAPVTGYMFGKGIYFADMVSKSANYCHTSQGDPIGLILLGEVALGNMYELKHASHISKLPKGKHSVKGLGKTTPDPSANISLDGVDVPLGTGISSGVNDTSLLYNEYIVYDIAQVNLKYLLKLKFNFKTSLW

IC50 [1] [nM]	Kd [2] [nM]	Structure (SMILES)	PF50 [3]
63.1	–	CCNC(=O)c1ccc(N2CCN(Cc3cc4c(c(OCC)c3)OC(C)C(=O)N4)CC2)c(Cl)c1 (stereo not drawn) [Compound 399, 3-Chloro-4-(4-((8-ethoxy-2-methyl-3-oxo-3,4-dihydro-2H-benzo[b][1,4]oxazin-6-yl)methyl)piperazin-1-yl)-N-ethylbenzamide]	>4.0
31.6	–	CCOc1cc(CN2CCN(c3ccc(C(=O)NC)cc3C)CC2)cc2c1OC(C)C(=O)N2 (stereo not drawn) [Compound 400, 4-(4-((8-Ethoxy-2-methyl-3-oxo-3,4-dihydro-2H-benzo[b][1,4]oxazin-6-yl)methyl)piperazin-1-yl)-N,3-dimethylbenzamide]	1211
50.1	–	CCNC(=O)c1ccc(N2CCN(Cc3cc4c(c(OCC)c3)OC(C)C(=O)N4)CC2)c(C)c1 (stereo not drawn) [Compound 401, 4-(4-((8-Ethoxy-2-methyl-3-oxo-3,4-dihydro-2H-benzo[b][1,4]oxazin-6-yl)methyl)piperazin-1-yl)-N-ethyl-3-methylbenzamide]	>5000
39.8	–	CCOc1cc(CN2CCN(c3ccc(C(=O)NC4CC4)cc3C)CC2)cc2c1OC(C)C(=O)N2 (stereo not drawn) [Compound 402, N-Cyclopropyl-4-(4-((8-ethoxy-2-methyl-3-oxo-3,4-dihydro-2H-benzo[b][1,4]oxazin-6-yl)methyl)piperazin-1-yl)-3-methylbenzamide]	>10000
63.1	–	CNC(=O)c1ccc(N2CCN(Cc3cc4c(c(OC(F)F)c3)OC(C)C(=O)N4)CC2)cc1 (stereo not drawn) [Compound 403, 4-(4-((8-(Difluoromethoxy)-2-methyl-3-oxo-3,4-dihydro-2H-benzo[b][1,4]oxazin-6-yl)methyl)piperazin-1-yl)-N-methylbenzamide]	>2.0
31.6	–	CCNC(=O)c1ccc(N2CCN(Cc3cc4c(c(OC(F)F)c3)OC(C)C(=O)N4)CC2)cc1 (stereo not drawn) [Compound 404, 4-(4-((8-(Difluoromethoxy)-2-methyl-3-oxo-3,4-dihydro-2H-benzo[b][1,4]oxazin-6-yl)methyl)piperazin-1-yl)-N-ethylbenzamide]	>2.0
63.1	–	CNC(=O)c1ccc(N2CCN(Cc3cc4c(c(OC(F)F)c3)OC(C)C(=O)N4)CC2)c(C)c1 (stereo not drawn) [Compound 406, 4-(4-((8-(Difluoromethoxy)-2-methyl-3-oxo-3,4-dihydro-2H-benzo[b][1,4]oxazin-6-yl)methyl)piperazin-1-yl)-N,3-dimethylbenzamide]	13

Second part, the molecule before the results:

Structure (SMILES)	IC50 [1] [nM]	Kd [2] [nM]	PF50 [3]
CC1Oc2ccc(CN3CCN(c4ccc(Cl)cn4)CC3)cc2NC1=O (stereo not drawn) [Compound 61, 6-((4-(5-Chloropyridin-2-yl)piperazin-1-yl)methyl)-2-methyl-2H-benzo[b][1,4]oxazin-3(4H)-one]	39.8 to 100	≤ 10	≦0.9
COc1cc(CN2CCN(c3ccccc3)CC2)cc2c1OC(C)C(=O)N2 (stereo not drawn) [Compound 156, 8-Methoxy-2-methyl-6-((4-phenylpiperazin-1-yl)methyl)-2H-benzo[b][1,4]oxazin-3(4H)-one]	≥ 126	≤ 10	1.0-1.9
CNC(=O)c1ccc(N2CCN(Cc3cc4c(c(OC)c3)OC(C)C(=O)N4)CC2)cc1 (stereo not drawn) [Compound 161, 4-(4-((8-Methoxy-2-methyl-3-oxo-3,4-dihydro-2H-benzo[b][1,4]oxazin-6-yl)methyl)piperazin-1-yl)-N-methylbenzamide]	≤ 31.6	< 31.6	≧10.0
CNC(=O)c1ccc(N2CCC(Cc3ccc4c(c3)NC(=O)C(C)O4)CC2)cc1 (stereo not drawn) [Compound 390, N-Methyl-4-(4-((2-methyl-3-oxo-3,4-dihydro-2H-benzo[b][1,4]oxazin-6-yl)methyl)piperidin-1-yl)benzamide]	> 200	–	1.0
CCOc1cc(CN2CCN(c3ccc(C(=O)NC)cc3)CC2)cc2c1OC(C)C(=O)N2 (stereo not drawn) [Compound 398, 4-(4-((8-Ethoxy-2-methyl-3-oxo-3,4-dihydro-2H-benzo[b][1,4]oxazin-6-yl)methyl)piperazin-1-yl)-N-methylbenzamide]	79.4	–	>2.0
